Experimental data: patent US9023865B2, “Compounds that are ERK inhibitors” (Merck Sharp & Dohme Corp., priority 2011, dated 2015)
pIC50: −log10 of the molar value. Like-named read-outs stand apart in the source and are kept apart here.

Biological target: Active Human ERK2 (hERK2) (Homo sapiens (Human), UniProt P28482)
Test: Active Human ERK2 (hERK2) Activity Assay (IMAP-FP)
Type: biochemical
Description: Assays Active Human ERK2 (hERK2) Activity Assay:
Activated ERK2 activity was determined in an IMAP-FP assay (Molecular Devices). […] The final reaction in each well of 25 μL consists of 0.5 nM hERK2, 900 nM unlabeled peptide, 80 nM labeled-peptide, and 30 μM ATP. Phosphorylation reactions were allowed to proceed for 60 minutes and were immediately quenched by the addition of […] IMAP detection beads (1:1000 dilutions) in IMAP binding buffer (Molecular Devices) with 24 mM NaCl. Plates were read on EnVision reader after 60 minutes binding equilibration using Fluorescence Polarization protocol (Perkin Elmer).

[1] = phosphorylated active hERK2, 30 μM ATP, average, read-out: ERK 2 Human average IC50

Sequence of Active Human ERK2 (hERK2) (P28482 whole entry): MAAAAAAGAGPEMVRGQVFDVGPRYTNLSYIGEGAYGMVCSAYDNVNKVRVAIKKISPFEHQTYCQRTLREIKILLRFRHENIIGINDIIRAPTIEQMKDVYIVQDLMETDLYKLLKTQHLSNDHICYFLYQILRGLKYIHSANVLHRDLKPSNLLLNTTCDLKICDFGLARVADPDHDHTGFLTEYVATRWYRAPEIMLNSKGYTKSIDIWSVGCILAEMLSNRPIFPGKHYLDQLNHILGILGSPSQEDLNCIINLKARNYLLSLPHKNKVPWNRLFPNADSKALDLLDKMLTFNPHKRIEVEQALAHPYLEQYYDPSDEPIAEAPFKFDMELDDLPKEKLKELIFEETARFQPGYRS

Structure (SMILES) | pIC50 [1] | pIC50 (read-out: AERK2 IC50 (Active human ERK2 Activity Assay))
COCc1n[nH]c2cc(NC(=O)N[C@H](C)c3ccccc3)ncc12 [Example 599] | 8.11 | 
Cc1cc(-c2n[nH]c3cc(NC(=O)NC(C)c4ccccc4OC(F)(F)F)ncc23)ccn1 (stereo not drawn) [Example 524] | 8.62 | 
Cc1cc(-c2n[nH]c3cc(NC(=O)NCc4cnsc4)ncc23)ccn1 [Example 423] | 9.23 | 
C[C@@H](NC(=O)Nc1cc2[nH]nc(C(=O)NCC(F)(F)CN3CCOCC3)c2cn1)c1ccccc1 [Example 125] | 8.18 | 
Cc1nocc1-c1n[nH]c2cc(NC(=O)N[C@H](C)c3ccc(F)cc3)ncc12 [Example 243] | 7.06 | 
Cc1cc(-c2n[nH]c3cc(NC(=O)NCc4cc[nH]n4)ncc23)ccn1 [Example 419] | 8.57 | 
O=C(Nc1cc2[nH]nc(C3CC3)c2cn1)N[C@@H]1CCCOc2ccccc21 [Example 295] | 8.57 | 
C[C@@H](NC(=O)Nc1cc2[nH]nc(-c3cccc(C#N)c3)c2cn1)c1ccccc1 [Example 672] | 8.81 | 
Cc1cc(-c2n[nH]c3cc(NC(=O)N[C@H](COCC4CC4)c4ccccc4)ncc23)no1 [Example 699] | 7.63 | 
Cc1cc(-c2n[nH]c3c(Br)c(NC(=O)N[C@H](C)c4ccc(Cl)cc4)ncc23)ccn1 [Example 86, 1-[7-bromo-3-(2-methylpyridin-4-yl)-1H-pyrazolo[4,3-c]pyridin-6-yl]-3-[(1R)-1-(4-chlorophenyl)ethyl]urea] | 6.34 | 
COC[C@@H](NC(=O)Nc1ncc2c(-c3ccncc3)n[nH]c2c1F)c1ccccc1 [Example 547] | 9.74 | 
Cc1cc(-c2n[nH]c3cc(NC(=O)NCC(O)C(F)(F)F)ncc23)ccn1 (stereo not drawn) [Example 195] | 8.09 | 
Cc1cc(-c2n[nH]c3cc(NC(=O)N[C@H]4CCCC(F)(F)[C@@H]4O)ncc23)ccn1 [Example 383] | 7.88 | 
Cc1cc(-c2n[nH]c3cc(NC(=O)N[C@H](CO)c4ccc(F)cc4)ncc23)ccn1 [Example 346] | 7.05 | 
Cc1cc(-c2n[nH]c3cc(NC(=O)N[C@@H]4CN(C)C[C@H]4c4cccc(Cl)c4)ncc23)ccn1 [Example 581] | 9.63 | 
Cc1cc(-c2n[nH]c3cc(NC(=O)N[C@@H](C)c4ccccn4)ncc23)ccn1 [Example 176] | 7.39 | 
O=C(NCc1ccno1)Nc1cc2[nH]nc(-c3ccc(F)cc3)c2cn1 [Example 222] | 9.00 | 
C[C@@H](NC(=O)Nc1cc2[nH]nc(-c3ccc4nn(C)cc4c3)c2cn1)c1ccccc1 [Example 651] | 9.65 | 
CC(CN(C)C)NC(=O)Nc1cc2[nH]nc(-c3ccc(F)cc3)c2cn1 (stereo not drawn) [Example 228] | 7.15 | 
Cc1cc(-c2n[nH]c3cc(NC(=O)NCC(=O)N(C)C)ncc23)ccn1 [Example 187] | 7.28 | 
C[C@@H](NC(=O)Nc1cc2[nH]nc(Br)c2cn1)c1ccc(F)c(Cl)c1 [Example 68, 1-(3-bromo-1H-pyrazolo[4,3-c]pyridin-6-yl)-3-[(1R)-1-(3-chloro-4-fluorophenyl)ethyl]urea] | 6.97 | 
O=C(NCC1CC1)Nc1cc2[nH]nc(C3CC3)c2cn1 [Example 148] | 7.07 | 
COc1cc(-c2n[nH]c3cc(NC(=O)N[C@H](C)c4ccc(F)cc4)ncc23)cc(C(F)(F)F)n1 [Example 257] | 6.42 | 
CSC[C@@H](NC(=O)Nc1cc2[nH]nc(-c3ccnc(C)c3)c2cn1)c1ccccc1 [Example 570] | 9.59 | 

Structure (SMILES) | pIC50 [1] | pIC50 (read-out: AERK2 IC50 (Active human ERK2 Activity Assay))
O=C(Nc1cc2[nH]nc(-c3ccncc3)c2cn1)N[C@H](CO)c1ccccc1 [Example 546] | 9.45 | 
Cc1cc(-c2n[nH]c3cc(NC(=O)N[C@H](C)Cc4ccccc4)ncc23)ccn1 [Example 606] | 8.47 | 
Cc1cc(-c2n[nH]c3cc(NC(=O)NC[C@@H]4COCCO4)ncc23)ccn1 [Example 550] | 8.61 | 
COC[C@@H](NC(=O)Nc1cc2[nH]nc(-c3ccn4ncnc4c3)c2cn1)c1ccc(F)cc1 [Example 300] | 8.87 | 
Cc1cc(-c2n[nH]c3cc(NC(=O)N[C@H]4CN(C)[C@@H](C(F)F)[C@@H]4c4ccccc4)ncc23)ccn1 [Example 567] | 9.36 | 
Cc1cc(-c2n[nH]c3cc(NC(=O)NC4(CN)CCc5cc(F)ccc54)ncc23)ccn1 (stereo not drawn) [Example 492] | 7.59 | 
C[C@@H](NC(=O)Nc1cc2[nH]nc(C3CC3C(=O)O)c2cn1)c1ccccc1 (stereo partly drawn) [Example 660] | 8.57 | 
Cc1cc(-c2n[nH]c3cc(NC(=O)NC4(c5ccncc5)CCC4)ncc23)ccn1 [Example 352] | 7.52 | 
O=C(NCc1ccccc1)Nc1cc2[nH]nc(C3CCC3)c2cn1 [Example 147] | 7.95 | 
COC[C@@H](NC(=O)Nc1cc2[nH]nc(-c3ccncc3)c2cn1)c1ccccc1 [Example 545] | 9.63 | 
CCNC(=O)Nc1cc2[nH]nc(C3CC3)c2cn1 [Example 157] | 6.60 | 
Cc1cc(-c2n[nH]c3cc(NC(=O)NCc4ccc5[nH]cnc5c4)ncc23)ccn1 [Example 368] | 8.55 | 
Cc1cc(-c2n[nH]c3cc(NC(=O)NC(C)(C)C)ncc23)ccn1 [Example 36, 1-tert-butyl-3-[3-(2-methylpyridin-4-yl)-1H-pyrazolo[4,3-c]pyridin-6-yl]urea] | 7.49 | 
Cc1cc(-c2n[nH]c3cc(NC(=O)NCc4csc5ccccc45)ncc23)ccn1 [Example 502] | 8.88 | 
CCO[C@H]1CN(C)C[C@@H]1NC(=O)Nc1cc2[nH]nc(-c3ccc(F)cc3)c2cn1 [Example 319] | 9.28 | 
C[C@@H](NC(=O)Nc1cc2[nH]nc(-c3cccc(Cl)c3)c2cn1)c1ccc(F)c(Cl)c1 [Example 76, 1-[(1R)-1-(3-chloro-4-fluorophenyl)ethyl]-3-[3-(3-chlorophenyl)-1H-pyrazolo[4,3-c]pyridin-6-yl]urea] | 7.25 | 
Cc1cc(-c2n[nH]c3cc(NC(=O)NCc4ccccc4Cl)ncc23)ccn1 [Example 439] | 8.89 | 
Cc1cc(-c2n[nH]c3cc(NC(=O)NCc4ccno4)ncc23)ccn1 [Example 435] | 8.97 | 
Cc1cc(-c2n[nH]c3cc(NC(=O)NCc4ccc(Cl)cc4F)ncc23)ccn1 [Example 521] | 8.48 | 
Cc1cc(-c2n[nH]c3cc(NC(=O)NC4CCOc5cc(F)ccc54)ncc23)ccn1 (stereo not drawn) [Example 286] | 8.02 | 
C[C@@H](NC(=O)Nc1cc2[nH]nc(C(F)F)c2cn1)c1ccccc1 [Example 670] | 7.87 | 
Cc1cc(-c2n[nH]c3cc(NC(=O)N[C@H](C)c4ccc(Cl)c(C)c4)ncc23)ccn1 [Example 341] | 8.54 | 
Cc1cc(-c2n[nH]c3cc(NC(=O)NC(c4ccc(F)cc4)C4CCCO4)ncc23)ccn1 (stereo not drawn) [Example 238] | 9.03 | 
Cc1cc(-c2n[nH]c3cc(NC(=O)N[C@H](C)c4ccc(F)cn4)ncc23)ccn1 [Example 503] | 9.07 | 

Structure (SMILES) | pIC50 [1] | pIC50 (read-out: AERK2 IC50 (Active human ERK2 Activity Assay))
Cc1cc(-c2n[nH]c3cc(NC(=O)N[C@H](C)c4ccccn4)ncc23)ccn1 [Example 177] | 9.04 | 
Cc1cc(-c2n[nH]c3cc(NC(=O)NCc4ncc(Cl)cc4F)ncc23)ccn1 [Example 487] | 7.99 | 
COCC(NC(=O)Nc1cc2[nH]nc(-c3ccnc(C)c3)c2cn1)c1ccc(C(F)(F)F)cn1 (stereo not drawn) [Example 240] | 7.62 | 
C[C@@H](NC(=O)Nc1cc2[nH]nc(CNCC(F)F)c2cn1)c1ccccc1 [Example 562] | 7.60 | 
Cc1cc(-c2n[nH]c3cc(NC(=O)NCCC4CCOC4)ncc23)ccn1 (stereo not drawn) [Example 387] | 8.35 | 
Cc1cc(-c2n[nH]c3cc(NC(=O)N4CCN(c5ccc(F)cc5)C[C@H]4C)ncc23)ccn1 [Example 288] | 5.64 | 
C[C@@H](NC(=O)Nc1cc2[nH]nc(-c3cnc(-n4cccn4)nc3)c2cn1)c1ccccc1 [Example 291] | 8.35 | 
C[C@@H](NC(=O)Nc1cc2[nH]nc(C3CC3(F)F)c2cn1)c1ccc(F)cc1 (stereo partly drawn) [Example 165] | 8.05 | 
CC[C@H](NC(=O)Nc1cc2[nH]nc(-c3ccnc(C)c3)c2cn1)c1ccc(Cl)cc1 [Example 413] | 7.41 | 
Cc1cc(-c2n[nH]c3cc(NC(=O)N[C@@H](CN(C)C)c4ccccc4)ncc23)ccn1 [Example 481] | 7.96 | 
COCCNC(=O)Nc1cc2[nH]nc(-c3ccnc(C4CC4)c3)c2cn1 [Example 629] | 8.82 | 
CN1C[C@@H](NC(=O)Nc2cc3[nH]nc(-c4ccc(F)cc4)c3cn2)[C@H](c2ccccc2)C1 [Example 214] | 9.40 | 
Cc1cc(-c2n[nH]c3cc(NC(=O)NCc4ccccc4OC(F)(F)F)ncc23)ccn1 [Example 523] | 9.22 | 
C[C@@H](NC(=O)Nc1cc2[nH]nc(C3CC3(F)F)c2cn1)c1ccccc1 (stereo partly drawn) [Example 164] | 8.11 | 
CNC(=O)CNC(=O)Nc1cc2[nH]nc(-c3ccnc(C)c3)c2cn1 [Example 186] | 7.36 | 
Cc1cc(-c2n[nH]c3cc(NC(=O)NCc4cccc(NS(C)(=O)=O)c4)ncc23)ccn1 [Example 366] | 9.47 | 
COC[C@H](NC(=O)Nc1cc2[nH]nc(-c3ccnc(C)c3)c2cn1)c1ccccn1 [Example 415] | 7.70 | 
Cc1cc(-c2n[nH]c3cc(NC(=O)N[C@@H]4CCCCc5ccccc54)ncc23)ccn1 [Example 265] | 8.78 | 
Cc1cc(-c2n[nH]c3cc(NC(=O)NC(CO)C(F)(F)F)ncc23)ccn1 (stereo not drawn) [Example 194] | 7.87 | 
COc1ccc(C2(NC(=O)Nc3cc4[nH]nc(-c5ccnc(C)c5)c4cn3)CC2)cc1 [Example 359] | 8.03 | 
Cc1cc(-c2n[nH]c3cc(NC(=O)NC4CCc5ccncc5C4)ncc23)ccn1 (stereo not drawn) [Example 400] | 8.27 | 
C[C@@H](NC(=O)Nc1cc2[nH]nc(-c3ccc4nn(C)cc4c3)c2cn1)c1cccc(Cl)c1 [Example 62, 1-[(1R)-1-(3-chlorophenyl)ethyl]-3-[3-(2-methyl-2H-indazol-5-yl)-1H-pyrazolo[4,3-c]pyridin-6-yl]urea] | 9.17 | 8.77 to 9.70
CCn1cc(CNC(=O)Nc2cc3[nH]nc(-c4ccnc(C)c4)c3cn2)cn1 [Example 471] | 7.99 | 
